According to PubChem BioAssay AID248 (DTP/NCI, 2004):
“And” between values parts separate entries of the source, which are not always exact repeats. Identical values can stand only once. Toxic doses and inconclusive results are not listed. Rule as the data show it: active = T/C of 150% or more; inactive = T/C below 125%.

System: L1210 leukemia ip in BDF1 mice, survival T/C
Assay: NCI In Vivo Anticancer Drug Screen. Data for tumor model L1210 Leukemia (intraperitoneal) in B6D2F1 (BDF1) mice
Conditions: endpoint: mean survival time, higher = longer survival
Method in brief: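 Survival endpoint. Drug-treated group vs vehicle group, expressed as T divided by C. Tumor passaged by transplantation.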

[1] = dose: 100.0 mg/kg/injection, schedule: Q01DX001 (ip), vehicle: saline
[2] = dose: 200.0 mg/kg/injection, schedule: Q01DX001 (ip), vehicle: saline
[3] = dose: 400.0 mg/kg/injection, schedule: Q01DX001 (ip), vehicle: saline
[4] = dose: 50.0 mg/kg/injection, schedule: Q01DX001 (ip), vehicle: carboxymethylcellulose (CMC)
[5] = dose: 100.0 mg/kg/injection, schedule: Q01DX001 (ip), vehicle: carboxymethylcellulose (CMC)
[6] = dose: 200.0 mg/kg/injection, schedule: Q01DX001 (ip), vehicle: carboxymethylcellulose (CMC)
[7] = dose: 400.0 mg/kg/injection, schedule: Q01DX001 (ip), vehicle: carboxymethylcellulose (CMC)
[8] = dose: 25.0 mg/kg/injection, schedule: Q01DX009 (ip), vehicle: saline
[9] = dose: 200.0 mg/kg/injection, schedule: Q04DX003 (ip), vehicle: saline
[10] = dose: 100.0 mg/kg/injection, schedule: Q01DX009 (ip), vehicle: Klucel (hydroxypropylcellulose) (HPC)
[11] = dose: 100.0 mg/kg/injection, schedule: Q04DX003 (ip), vehicle: Klucel (hydroxypropylcellulose) (HPC)
[12] = dose: 200.0 mg/kg/injection, schedule: Q01DX009 (ip), vehicle: Klucel (hydroxypropylcellulose) (HPC)
[13] = dose: 200.0 mg/kg/injection, schedule: Q04DX003 (ip), vehicle: Klucel (hydroxypropylcellulose) (HPC)
[14] = dose: 400.0 mg/kg/injection, schedule: Q01DX009 (ip), vehicle: Klucel (hydroxypropylcellulose) (HPC)
[15] = dose: 400.0 mg/kg/injection, schedule: Q04DX003 (ip), vehicle: Klucel (hydroxypropylcellulose) (HPC)
[16] = dose: 50.0 mg/kg/injection, schedule: Q01DX009 (ip), vehicle: saline
[17] = dose: 100.0 mg/kg/injection, schedule: Q01DX009 (ip), vehicle: saline
[18] = dose: 100.0 mg/kg/injection, schedule: Q04DX003 (ip), vehicle: saline
[19] = dose: 200.0 mg/kg/injection, schedule: Q01DX009 (ip), vehicle: saline
[20] = dose: 25.0 mg/kg/injection, schedule: Q01DX009 (ip), vehicle: Klucel (hydroxypropylcellulose) (HPC)
[21] = dose: 50.0 mg/kg/injection, schedule: Q01DX009 (ip), vehicle: Klucel (hydroxypropylcellulose) (HPC)
[22] = dose: 400.0 mg/kg/injection, schedule: Q04DX003 (ip), vehicle: saline
[23] = dose: 25.0 mg/kg/injection, schedule: Q04DX003 (ip), vehicle: saline
[24] = dose: 50.0 mg/kg/injection, schedule: Q04DX003 (ip), vehicle: saline
[25] = dose: 100.0 mg/kg/injection, schedule: Q01DX009 (ip), vehicle: carboxymethylcellulose (CMC)
[26] = dose: 200.0 mg/kg/injection, schedule: Q01DX009 (ip), vehicle: carboxymethylcellulose (CMC)

Measured: T/C

Cc1ccc(S(=O)NNc2ccccc2)cc1 (stereo not drawn)
inactive: [1] 93 % of control | [2] 104 % of control | [3] 93 % of control

O=C(O)C1(O)c2ccccc2-c2ccc(Cl)cc21 (stereo not drawn)
inactive: [4] 103 % of control | [5] 105 % of control | [6] 114 % of control | [7] 103 % of control

CN(C)c1nc(C(=O)O)cc(=O)[nH]1
inactive: dose: 100.0 mg/kg/injection, schedule: Q01DX Z (ip), vehicle: saline 101 % of control | dose: 200.0 mg/kg/injection, schedule: Q01DX Z (ip), vehicle: saline 100 % of control

NC(=O)c1cn(C2OC(CO)C(O)C2O)c2nc(Cl)nc(N)c12 (stereo not drawn)
inactive: dose: 3.12 mg/kg/injection, schedule: Q01DX009 (ip), vehicle: saline 96 % of control | dose: 6.25 mg/kg/injection, schedule: Q01DX009 (ip), vehicle: saline 106 % of control | dose: 12.5 mg/kg/injection, schedule: Q01DX009 (ip), vehicle: saline 101 % of control | [8] 106 % of control | [9] 115 % of control

CC1(C)C=C(C(Br)c2cccc(Br)c2)C(=O)c2ccccc21 (stereo not drawn)
inactive: [10] 101 % of control | [11] 97 % of control | [12] 100 % of control | [13] 95 % of control | [14] 102 % of control | [15] 103 % of control

COC(=O)C(C)CN1CCCCC1 (stereo not drawn)
inactive: [16] 101 % of control | [17] 97 % of control | [18] 102 % of control | [19] 101 % of control | [9] 105 % of control

Cc1cc(Cl)n[nH]c1=O
inactive: [1] 105 % of control | [2] 104 % of control | [3] 102 % of control

CC(C)(C)NC(=O)NCc1ccco1
inactive: dose: 12.5 mg/kg/injection, schedule: Q01DX009 (ip), vehicle: Klucel (hydroxypropylcellulose) (HPC) 98 % of control | [20] 98 % of control | [21] 101 % of control

CCC(C)N(C)N=Nc1ccc(C(N)=O)cc1 (stereo not drawn)
inactive: dose: 178.0 mg/kg/injection, schedule: Q01DX001 (ip), vehicle: other 104 % of control | dose: 267.0 mg/kg/injection, schedule: Q01DX001 (ip), vehicle: other 112 % of control

CCN(c1ccccc1)c1ccc(C=O)cc1
inactive: [10] 98 % of control | [11] 97 % of control | [12] 94 % of control | [13] 102 % of control | [14] 93 % of control | [15] 105 % of control

CC1CCN(P(c2ccccc2)N2CCC(C)CC2)CC1
inactive: dose: 100.0 mg/kg/injection, schedule: Q04DX002 (ip), vehicle: Klucel (hydroxypropylcellulose) (HPC) 97 % of control | dose: 200.0 mg/kg/injection, schedule: Q04DX002 (ip), vehicle: Klucel (hydroxypropylcellulose) (HPC) 97 % of control | dose: 400.0 mg/kg/injection, schedule: Q04DX002 (ip), vehicle: Klucel (hydroxypropylcellulose) (HPC) 100 % of control

NCC1CC2CCC1C2 (stereo not drawn)
inactive: [17] 90 % of control | [18] 101 % of control | [19] 90 % of control | [9] 103 % of control | [22] 103 % of control

O=C(O)c1ccccc1C(=O)OC1CCCC2CCCC21 (stereo not drawn)
inactive: [5] 95 % of control and 96 % of control | [6] 101 % of control and 98 % of control | [7] 90 % of control and 98 % of control

N#Cc1ccccc1NN=Nc1ccccc1-c1nc(N)nc(N)n1
inactive: [23] 97 % of control | [24] 103 % of control

C=CCN(CC=C)CC=C
inactive: [8] 100 % of control | [16] 97 % of control | [17] 100 % of control

CCOC(=O)CCC(NC(=O)c1ccc(NCc2nnc3nc(N)nc(N)c3n2)cc1)C(=O)OCC (stereo not drawn)
inactive: dose: 25.0 mg/kg/injection, schedule: Q01DX001 (ip), vehicle: saline with Tween-80 100 % of control | dose: 50.0 mg/kg/injection, schedule: Q01DX001 (ip), vehicle: saline with Tween-80 95 % of control | dose: 100.0 mg/kg/injection, schedule: Q01DX001 (ip), vehicle: saline with Tween-80 107 % of control

CC(=O)C[P+](c1ccccc1)(c1ccccc1)c1ccccc1
inactive: dose: 12.0 mg/kg/injection, schedule: Q01DX009 (ip), vehicle: saline 96 % of control | dose: 12.0 mg/kg/injection, schedule: Q04DX003 (ip), vehicle: saline 104 % of control | [8] 96 % of control | [23] 94 % of control | [16] 112 % of control | [24] 98 % of control

CSC1=NCCS1
inactive: [20] 97 % of control | [21] 102 % of control | [10] 105 % of control | [25] 111 % of control | [26] 101 % of control

Cc1cc(CC#N)c(CC#N)cc1C
inactive: [4] 110 % of control | dose: 50.0 mg/kg/injection, schedule: Q01DX009 (ip), vehicle: carboxymethylcellulose (CMC) 96 % of control and 117 % of control | dose: 50.0 mg/kg/injection, schedule: Q04DX002 (ip), vehicle: carboxymethylcellulose (CMC) 94 % of control and 102 % of control | dose: 50.0 mg/kg/injection, schedule: Q04DX003 (ip), vehicle: carboxymethylcellulose (CMC) 98 % of control | [5] 97 % of control | [25] 100 % of control and 106 % of control | dose: 100.0 mg/kg/injection, schedule: Q04DX002 (ip), vehicle: carboxymethylcellulose (CMC) 102 % of control and 105 % of control | dose: 100.0 mg/kg/injection, schedule: Q04DX003 (ip), vehicle: carboxymethylcellulose (CMC) 95 % of control | [26] 96 % of control | dose: 200.0 mg/kg/injection, schedule: Q04DX002 (ip), vehicle: carboxymethylcellulose (CMC) 97 % of control and 107 % of control

CS(=O)(=O)OCC(=O)O
inactive: dose: 100.0 mg/kg/injection, schedule: Q01DX001 (ip), vehicle: Klucel (hydroxypropylcellulose) (HPC) 93 % of control | dose: 200.0 mg/kg/injection, schedule: Q01DX001 (ip), vehicle: Klucel (hydroxypropylcellulose) (HPC) 97 % of control

N#CC1CC2([N+](=O)[O-])c3ccccc3C1c1ccccc12 (stereo not drawn)
inactive: [10] 96 % of control | [11] 105 % of control | [18] 105 % of control | [12] 102 % of control | [13] 108 % of control | [9] 108 % of control | [14] 94 % of control | [15] 102 % of control | [22] 102 % of control

CC1(C)CSCC(C)(C)/C(=N/O)C1=O
inactive: dose: 50.0 mg/kg/injection, schedule: Q04DX002 (ip), vehicle: saline with Tween-80 101 % of control | dose: 100.0 mg/kg/injection, schedule: Q04DX002 (ip), vehicle: saline with Tween-80 112 % of control | dose: 200.0 mg/kg/injection, schedule: Q04DX002 (ip), vehicle: saline with Tween-80 101 % of control

CCCCCCCCCCCCC[n+]1ccc(C#N)cc1
inactive: dose: 7.5 mg/kg/injection, schedule: Q04DX003 (ip), vehicle: saline 101 % of control | dose: 15.0 mg/kg/injection, schedule: Q04DX003 (ip), vehicle: saline 98 % of control | dose: 30.0 mg/kg/injection, schedule: Q04DX003 (ip), vehicle: saline 101 % of control

c1ccc(COP(c2ccccc2)c2ccccc2)cc1
inactive: dose: 25.6 mg/kg/injection, schedule: Q04DX002 (ip), vehicle: saline with Tween-80 100 % of control | dose: 64.0 mg/kg/injection, schedule: Q04DX002 (ip), vehicle: saline with Tween-80 96 % of control | dose: 160.0 mg/kg/injection, schedule: Q04DX002 (ip), vehicle: saline with Tween-80 100 % of control | dose: 400.0 mg/kg/injection, schedule: Q04DX002 (ip), vehicle: saline with Tween-80 100 % of control

Nc1nc(N)c(N=Nc2ccc(S(N)(=O)=O)cc2)cc1N=Nc1ccccc1
inactive: [5] 94 % of control | [6] 94 % of control | [7] 100 % of control
